#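 Assay format: 96-well plates, 48-hour exposure. GI50 marks 50% less growth. TGI denotes the concentration required for complete inhibition of growth.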
# Assays:
# Test in all cases: inhibition of tumour cell growth, NCI panel, 48 h
# [1] = test system: 786-0 renal
# [2] = test system: A498 renal
# [3] = test system: A549 NSCLC
# [4] = test system: ACHN renal
# [5] = test system: BT-549 breast
# [6] = test system: CAKI-1 renal
# [7] = test system: CCRF-CEM leukemia
# [8] = test system: COLO 205 colon
# [9] = test system: DU-145 prostate
# [10] = test system: EKVX NSCLC
# [11] = test system: HCC-2998 colon
# [12] = test system: HCT-116 colon
# [13] = test system: HCT-15 colon
# [14] = test system: HL-60(TB) leukemia
# [15] = test system: HOP-62 NSCLC
# [16] = test system: HOP-92 NSCLC
# [17] = test system: HS 578T breast
# [18] = test system: HT29 colon
# [19] = test system: IGROV1 ovarian
# [20] = test system: K-562 leukemia
# [21] = test system: KM12 colon
# [22] = test system: LOX IMVI melanoma
# [23] = test system: M14 melanoma
# [24] = test system: MALME-3M melanoma
# [25] = test system: MCF7 breast
# [26] = test system: MDA-MB-231 breast
# [27] = test system: MDA-MB-435
# [28] = test system: MOLT-4 leukemia
# [29] = test system: NCI-H226 lung
# [30] = test system: NCI-H23 lung
# [31] = test system: NCI-H460 lung
# [32] = test system: NCI-H522 lung
# [33] = test system: NCI/ADR-RES ovarian
# [34] = test system: OVCAR-4 ovarian
# [35] = test system: OVCAR-5 ovarian
# [36] = test system: OVCAR-8 ovarian
# [37] = test system: PC-3 prostate
# [38] = test system: RPMI-8226 leukemia
# [39] = test system: RXF 393 renal
# [40] = test system: SF-268 CNS
# [41] = test system: SF-295 CNS
# [42] = test system: SF-539 CNS
# [43] = test system: SK-MEL-2 melanoma
# [44] = test system: SK-MEL-28 melanoma
# [45] = test system: SK-MEL-5 melanoma
# [46] = test system: SK-OV-3 ovarian
# [47] = test system: SN12C renal
# [48] = test system: SNB-19 CNS
# [49] = test system: SNB-75 CNS
# [50] = test system: SR leukemia
# [51] = test system: SW-620 colon
# [52] = test system: T-47D breast
# [53] = test system: TK-10 renal
# [54] = test system: U251 CNS
# [55] = test system: UACC-257 melanoma
# [56] = test system: UACC-62 melanoma
# [57] = test system: UO-31 renal
smiles,measurement,setting,value
Cc1ccc(-c2nnc(SCc3ccc(O)c4ncccc34)n2-c2ccccc2)cc1,GI50,[1],509 nM
same,TGI,[1],26.7 µM
same,GI50,[2],1500 nM
same,TGI,[2],13.2 µM
same,GI50,[3],366 nM
same,TGI,[3],> 100 µM
same,GI50,[4],144 nM
same,TGI,[4],8.02 µM
same,GI50,[5],201 nM
same,TGI,[5],> 21.7 µM
same,GI50,[6],312 nM
same,TGI,[6],7.79 µM
same,GI50,[7],94.9 nM
same,TGI,[7],> 100 µM
same,GI50,[8],1440 nM
same,TGI,[8],6.09 µM
same,GI50,[9],298 nM
same,TGI,[9],> 100 µM
same,GI50,[10],395 nM
same,TGI,[10],> 60.8 µM
same,GI50,[11],326 nM
same,TGI,[11],> 100 µM
same,GI50,[12],46.7 nM
same,TGI,[12],> 35.3 µM
same,GI50,[13],66.6 nM
same,TGI,[13],> 100 µM
same,GI50,[14],161 nM
same,TGI,[14],> 39.8 µM
same,GI50,[15],345 nM
same,TGI,[15],2630 nM
same,GI50,[16],195 nM
same,TGI,[16],1250 nM
same,GI50,[17],236 nM
same,TGI,[17],2000 nM
same,GI50,[18],3.78 µM
same,TGI,[18],> 100 µM
same,GI50,[19],284 nM
same,TGI,[19],> 100 µM
same,GI50,[20],217 nM
same,TGI,[20],> 100 µM
same,GI50,[21],294 nM
same,TGI,[21],> 100 µM
same,GI50,[22],206 nM
same,TGI,[22],3.97 µM
same,GI50,[23],166 nM
same,TGI,[23],3.24 µM
same,GI50,[24],353 nM
same,TGI,[24],6.67 µM
same,GI50,[25],81.9 nM
same,TGI,[25],> 100 µM
same,GI50,[26],439 nM
same,TGI,[26],24.9 µM
same,GI50,[27],110 nM
same,TGI,[27],> 100 µM
same,GI50,[28],196 nM
same,TGI,[28],> 100 µM
same,GI50,[29],973 nM
same,TGI,[29],> 100 µM
same,GI50,[30],254 nM
same,TGI,[30],> 39.8 µM
same,GI50,[31],38.2 nM
same,TGI,[31],1580 nM
same,GI50,[32],305 nM
same,TGI,[32],4.24 µM
same,GI50,[33],147 nM
same,TGI,[33],2270 nM
same,GI50,[34],431 nM
same,TGI,[34],> 100 µM
same,GI50,[35],1130 nM
same,TGI,[35],> 100 µM
same,GI50,[36],175 nM
same,TGI,[36],2140 nM
same,GI50,[37],164 nM
same,TGI,[37],> 100 µM
same,GI50,[38],232 nM
same,TGI,[38],> 100 µM
same,GI50,[39],399 nM
same,TGI,[39],24 µM
same,GI50,[40],90.6 nM
same,TGI,[40],10.9 µM
same,GI50,[41],265 nM
same,TGI,[41],4.27 µM
same,GI50,[42],272 nM
same,TGI,[42],3.16 µM
same,GI50,[43],276 nM
same,TGI,[43],875 nM
same,GI50,[44],376 nM
same,TGI,[44],> 100 µM
same,GI50,[45],337 nM
same,GI50,[46],370 nM
same,TGI,[46],4.05 µM
same,GI50,[47],329 nM
same,TGI,[47],> 100 µM
same,GI50,[48],231 nM
same,TGI,[48],31.1 µM
same,GI50,[49],248 nM
same,TGI,[49],2680 nM
same,GI50,[50],78.2 nM
same,TGI,[50],> 100 µM
same,GI50,[51],192 nM
same,TGI,[51],> 100 µM
same,GI50,[52],289 nM
same,TGI,[52],3.53 µM
same,GI50,[53],249 nM
same,TGI,[53],4.4 µM
same,GI50,[54],98.9 nM
same,TGI,[54],1740 nM
same,GI50,[55],388 nM
same,TGI,[55],4.22 µM
same,GI50,[56],347 nM
same,TGI,[56],2210 nM
same,GI50,[57],155 nM
same,TGI,[57],1260 nM
